Measured values taken from patent US7622450B2, “Flavone C-glycoside derivatives and compositions containing the derivatives” (Suntory Holdings Limited, priority 2002, dated 2009).

Experiments:
DNFB-induced ear edema = assay: Inhibitory effect on mouse ear contact dermatitis (DNFB-induced ear edema); type: in vivo, ICR strain mice; conditions: for Dose producing 50% inhibition of ear edema: DNFB-induced ear edema, mice, p.o.; for DNFB-induced edema vs control group: ICR mice, Student's t-test
Experimental: (§1) ICR strain mice at 7 weeks of age were purchased from CLEA Japan and used for experiments after preconditioning for 1 week. The yellow powder obtained in Example 1 [compound (1)] was suspended in 0.5% sodium carboxymethylcellulose/0.01N hydrochloric acid to prepare sample formulations at three concentrations corresponding to doses of 0.2, 1.0 and 5.0 μg/kg in a dose volume of 10 ml/kg. […] in six mice per group was established in 5 days by subcutaneous injection of 100 μl of a solution of 1% 2,4-dinitrofluorobenzene (DNFB) in ethanol on the back. On day 6, a solution of 1% DNFB in olive oil was applied on the right ear to induce ear contact dermatitis. After 24 hours, both ears were punched out in a diameter of 8 mm and weighed. Compound (1) was continuously orally administered for 7 days from the day before the primary challenge until the day on which edema was induced. A control group was treated with 0.5% sodium carboxymethylcellulose/0.01N hydrochloric acid. The experimental results were expressed as the average percentage of edema on the right in relation to left ears with standard deviation using Student's t-test for evaluating the significance between groups.
as §1, with “(2)]” for “(1)]”, “1.0, 10” for “0.2, 1.0”, “100” for “5.0”, “(2)” for “(1)”
The same procedures as in Experimental examples 1 and 2 were used to compare the inhibitory effects of a corticosteroid and several flavonoids (FIG. 3) on DNFB-induced ear edema formation with those of compound (1) and compound (2). The experimental results were expressed as the dose producing a 50% inhibition of DNFB-induced ear edema.

peritoneal mast cells = assay: Inhibitory effect on histamine release from peritoneal mast cells (Compound 48/80); type: cell-based, Wistar strain rats; conditions: Mast cell, rat peritoneal mast cells
Experimental: Wistar strain rats at 7 weeks of age were purchased from CLEA Japan and used for experiments after preconditioning for 1 week. After Wistar strain rats were decapitated under ether anesthesia, Tyrode solution was intraperitoneally injected. Mast cells were routinely isolated and suspended at […] in Tyrode solution containing 0.1% bovine serum albumin (BSA) to prepare a mast cell suspension. The mast cell suspension was incubated with compound (1) or compound (2) dissolved in 50% methanol at 37° C. for 5 minutes. Then, the suspension was further incubated with Compound 48/80 at 37° C. for 10 minutes and cooled on ice and then centrifuged. Then, the free histamine content in the resulting supernatant was measured on a high-speed liquid chromatograph by the post-column method using ortho-phthalaldehyde (OPA) according to the method of Onda et al. [J. Med. Sci., 27, 93-97(1978)]. The experimental results were expressed as the percentage of histamine release inhibited by the treatment with the samples as compared with the treatment with the solvent alone.

Row | Compound | Dose producing 50% inhibition of ear edema (DNFB-induced ear edema) [mg/kg p.o.] | further results
1 | O=c1cc(-c2ccc(O)cc2)oc2cc(O)cc(O)c12 [Apigenin] | 247 | –
2 | O=c1cc(-c2ccc(O)cc2)oc2cc3c(c(O)c12)[C@@H]1O[C@H](CO)[C@@H](O)[C@H](O)[C@@H]1O3 [Compound (1)] | 0.05 | DNFB-induced edema vs control group (DNFB-induced ear edema; 1.0 μg/kg orally for 7 days): significantly inhibited; DNFB-induced edema vs control group (DNFB-induced ear edema; 5.0 μg/kg orally for 7 days): significantly inhibited; inhibition at 5 µg/mL (peritoneal mast cells; concentration 5.0 μg/ml): 62.3%
3 | O=c1cc(-c2ccc(O)cc2)oc2c3c(cc(O)c12)O[C@H]1[C@@H](O)[C@H](O)[C@@H](CO)O[C@@H]31 [Compound (2)] | 0.17 | DNFB-induced edema vs control group (DNFB-induced ear edema; 100 μg/kg orally for 7 days): significantly inhibited; inhibition at 50 µg/mL (peritoneal mast cells; concentration 50.0 μg/ml): 51.2%
4 | C[C@@H]1C[C@H]2[C@@H]3CCC4=CC(=O)C=C[C@]4(C)[C@@]3(F)[C@@H](O)C[C@]2(C)[C@@]1(O)C(=O)CO [Dexamethasone] | 1.5 | –
5 | O=c1c(O)c(-c2ccc(O)c(O)c2)oc2cc(O)cc(O)c12 [Quercetin] | 265 | –
6 | C[C@@H]1O[C@@H](O[C@@H]2[C@@H](O)[C@H](O)[C@@H](CO)O[C@H]2c2c(O)cc(O)c3c(=O)cc(-c4ccc(O)cc4)oc23)[C@H](O)[C@H](O)[C@H]1O [Rhamnosyl vitexin] | 146 | –
7 | C[C@@H]1O[C@@H](OC[C@H]2O[C@@H](Oc3c(-c4ccc(O)c(O)c4)oc4cc(O)cc(O)c4c3=O)[C@H](O)[C@@H](O)[C@@H]2O)[C@H](O)[C@H](O)[C@H]1O [Rutin] | 123 | –
8 | O=c1cc(-c2ccc(O)cc2)oc2c([C@@H]3O[C@H](CO)[C@@H](O)[C@H](O)[C@H]3O)c(O)cc(O)c12 [Vitexin] | 103 | –
